Data as given in patent US6737383B1, “Herbicidal oxadiazolidines” (priority 1999, dated 2004).

Columns and labels:
pigweed = assay: Test B pre/postemergence pigweed; assay type: in vivo, Amaranthus retroflexus
How it was run: (§1)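 Herbicidal effect was estimated by eye on a ten-point control scale after plants spent twelve to sixteen days in a greenhouse following soil or foliar treatment. Foliar sprays targeted plants at one to four leaves; all doses were formulated in a non-phytotoxic solvent with surfactant.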

velvetleaf = assay: Test B pre/postemergence velvetleaf; assay type: in vivo, Abutilon theophrasti
How it was run: as §1

morningglory = assay: Test B pre/postemergence morningglory; assay type: in vivo, Ipomoea hederacea
How it was run: as §1

blackgrass = assay: Test B pre/postemergence blackgrass; assay type: in vivo, Alopecurus myosuroides
How it was run: as §1

purple nutsedge = assay: Test B pre/postemergence purple nutsedge; assay type: in vivo, Cyperus rotundus
How it was run: as §1

cocklebur = assay: Test B pre/postemergence cocklebur; assay type: in vivo, Xanthium strumarium
How it was run: as §1

corn = assay: Test B pre/postemergence corn; assay type: in vivo, Zea mays
How it was run: as §1

wild oat = assay: Test B pre/postemergence wild oat; assay type: in vivo, Avena fatua
How it was run: as §1

rape = assay: Test B pre/postemergence rape; assay type: in vivo, Brassica napus
How it was run: as §1

sugar beet = assay: Test B pre/postemergence sugar beet; assay type: in vivo, Beta vulgaris
How it was run: as §1

crabgrass = assay: Test B pre/postemergence crabgrass; assay type: in vivo, Digitaria sanguinalis
How it was run: as §1

duck salad = assay: Test B flood test duck salad; assay type: in vivo, Heteranthera limosa
How it was run: (§2)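 Plants were grown to the 2-leaf stage before treatment with test chemical, then held in a greenhouse for twelve to sixteen days. Injury was visually rated against untreated controls on a 0–10 scale, where 0 is no effect and 10 is complete control.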

surinam grass = assay: Test B pre/postemergence surinam grass; assay type: in vivo, Brachiaria decumbens
How it was run: as §1

wheat = assay: Test B pre/postemergence wheat; assay type: in vivo, Triticum aestivum
How it was run: as §1

smallflower flatsedge = assay: Test B flood test smallflower flatsedge; assay type: in vivo, Cyperus difformis
How it was run: as §2

bedstraw = assay: Test B pre/postemergence bedstraw; assay type: in vivo, Galium aparine
How it was run: as §1

[1] = Postemergence, Rate 62 g/ha, scale 0 to 10, 0 is no effect, 10 is complete control
[2] = Postemergence, Rate 250 g/ha, scale 0 to 10, 0 no effect, 10 complete control
[3] = Preemergence, Rate 62 g/ha, scale 0 to 10, 0 is no effect, 10 is complete control
[4] = Preemergence, Rate 125 g/ha, scale 0 to 10 (0 no effect, 10 complete control)
[5] = Preemergence, Rate 250 g/ha, scale of 0 to 10 where 0 is no effect and 10 is complete control
[6] = Preemergence, Rate 500 g/ha, scale 0 (no effect) to 10 (complete control)
[7] = Rate 125 g/ha, Postemergence, scale 0 to 10, 0 no effect, 10 complete control
[8] = Rate 500 g/ha, Postemergence, 0 to 10 scale (0 no effect, 10 complete control)
[9] = Rate 125 g/ha, Postemergence section (flood test species), scale 0 to 10, 0 no effect, 10 complete control
[10] = flood test, listed under Postemergence, Rate 250 g/ha, scale 0 to 10, 0 no effect, 10 complete control

CC(C)N(C(=O)n1oc(=O)n(-c2cc(Cl)ccc2Cl)c1=O)c1ccc(F)cc1 [Compound 16]
0: Redroot pigweed plant response rating (pigweed; [1]) | Redroot pigweed plant response rating (pigweed; [2]) | Plant response rating, Redroot pigweed (pigweed; [3]) | Plant response rating, Redroot pigweed (pigweed; [4]) | Plant response rating, Redroot pigweed (pigweed; [5]) | Redroot pigweed plant response rating (pigweed; [6]) | Redroot pigweed plant response rating (pigweed; [7]) | Redroot pigweed plant response rating (pigweed; [8]) | Velvetleaf plant response rating (velvetleaf; [1]) | Velvetleaf plant response rating (velvetleaf; [2]) | Plant response rating, Velvetleaf (velvetleaf; [3]) | Plant response rating, Velvetleaf (velvetleaf; [4]) | Plant response rating, Velvetleaf (velvetleaf; [5]) | Velvetleaf plant response rating (velvetleaf; [6]) | Velvetleaf plant response rating (velvetleaf; [7]) | Plant response rating, Morningglory (morningglory; [3]) | Plant response rating, Morningglory (morningglory; [4]) | Plant response rating, Morningglory (morningglory; [5]) | Morningglory plant response rating (morningglory; [6]) | Blackgrass plant response rating (blackgrass; [1]) | Blackgrass plant response rating (blackgrass; [2]) | Plant response rating, Blackgrass (blackgrass; [3]) | Plant response rating, Blackgrass (blackgrass; [4]) | Plant response rating, Blackgrass (blackgrass; [5]) | Blackgrass plant response rating (blackgrass; [6]) | Blackgrass plant response rating (blackgrass; [7]) | Nutsedge plant response rating (purple nutsedge; [1]) | Nutsedge plant response rating (purple nutsedge; [2]) | Plant response rating, Nutsedge (purple nutsedge; [3]) | Plant response rating, Nutsedge (purple nutsedge; [4]) | Plant response rating, Nutsedge (purple nutsedge; [5]) | Nutsedge plant response rating (purple nutsedge; [6]) | Nutsedge plant response rating (purple nutsedge; [7]) | Nutsedge plant response rating (purple nutsedge; [8]) | Cocklebur plant response rating (cocklebur; [1]) | Cocklebur plant response rating (cocklebur; [2]) | Plant response rating, Cocklebur (cocklebur; [3]) | Plant response rating, Cocklebur (cocklebur; [4]) | Plant response rating, Cocklebur (cocklebur; [5]) | Cocklebur plant response rating (cocklebur; [6]) | Cocklebur plant response rating (cocklebur; [7]) | Cocklebur plant response rating (cocklebur; [8]) | Corn plant response rating (corn; [1]) | Corn plant response rating (corn; [2]) | Plant response rating, Corn (corn; [3]) | Plant response rating, Corn (corn; [4]) | Plant response rating, Corn (corn; [5]) | Corn plant response rating (corn; [6]) | Corn plant response rating (corn; [7]) | Corn plant response rating (corn; [8]) | Wild oats plant response rating (wild oat; [1]) | Wild oats plant response rating (wild oat; [2]) | Plant response rating, Wild oats (wild oat; [4]) | Plant response rating, Wild oats (wild oat; [5]) | Wild oats plant response rating (wild oat; [6]) | Wild oats plant response rating (wild oat; [7]) | Rape plant response rating (rape; [1]) | Rape plant response rating (rape; [2]) | Plant response rating, Rape (rape; [3]) | Plant response rating, Rape (rape; [4]) | Plant response rating, Rape (rape; [5]) | Rape plant response rating (rape; [6]) | Rape plant response rating (rape; [7]) | Rape plant response rating (rape; [8]) | Sugarbeets plant response rating (sugar beet; [1]) | Sugarbeets plant response rating (sugar beet; [2]) | Plant response rating, Sugarbeets (sugar beet; [3]) | Plant response rating, Sugarbeets (sugar beet; [4]) | Plant response rating, Sugarbeets (sugar beet; [5]) | Sugarbeets plant response rating (sugar beet; [6]) | Sugarbeets plant response rating (sugar beet; [7]) | Crabgrass plant response rating (crabgrass; [1]) | Crabgrass plant response rating (crabgrass; [2]) | Plant response rating, Crabgrass (crabgrass; [3]) | Crabgrass plant response rating (crabgrass; [7]) | Crabgrass plant response rating (crabgrass; [8]) | Ducksalad plant response rating (duck salad; [1]) | Ducksalad plant response rating (duck salad; [9]) | Ducksalad plant response rating (duck salad; Rate 500 g/ha, Postemergence section of Table B, 0 to 10 scale (0 no effect, 10 complete control)) | Ducksalad plant response rating (duck salad; [10]) | B. signalgrass plant response rating (surinam grass; [1]) | B. signalgrass plant response rating (surinam grass; [2]) | Plant response rating, B. signalgrass (surinam grass; [3]) | Plant response rating, B. signalgrass (surinam grass; [4]) | Plant response rating, B. signalgrass (surinam grass; [5]) | B. signalgrass plant response rating (surinam grass; [6]) | B. signalgrass plant response rating (surinam grass; [7]) | B. signalgrass plant response rating (surinam grass; [8]) | Wheat plant response rating (wheat; [1]) | Wheat plant response rating (wheat; [2]) | Plant response rating, Wheat (wheat; [3]) | Plant response rating, Wheat (wheat; [4]) | Plant response rating, Wheat (wheat; [5]) | Wheat plant response rating (wheat; [6]) | Wheat plant response rating (wheat; [7]) | S. Flatsedge plant response rating (smallflower flatsedge; [1]) | S. Flatsedge plant response rating (smallflower flatsedge; [9]) | S. Flatsedge plant response rating (smallflower flatsedge; [10]) | Bedstraw plant response rating (bedstraw; [1]) | Bedstraw plant response rating (bedstraw; [2]) | Plant response rating, Bedstraw (bedstraw; [3]) | Plant response rating, Bedstraw (bedstraw; [4]) | Plant response rating, Bedstraw (bedstraw; [5]) | Bedstraw plant response rating (bedstraw; [6]) | Bedstraw plant response rating (bedstraw; [7]) | Bedstraw plant response rating (bedstraw; [8])
1: Morningglory plant response rating (morningglory; [1]) | Morningglory plant response rating (morningglory; [2]) | Morningglory plant response rating (morningglory; [7])
3: Morningglory plant response rating (morningglory; [8])
2: Blackgrass plant response rating (blackgrass; [8]) | Plant response rating, Crabgrass (crabgrass; [4]) | Plant response rating, Crabgrass (crabgrass; [5]) | Crabgrass plant response rating (crabgrass; [6])
